Test results taken from patent US8541598B2, “Biodegradable solvents for the chemical industry” (Dublin City University, priority 2007, dated 2013).
“Also recorded” adds a separate entry of the source. Read-outs that look alike come from different tables or passages of the source.

How the values were obtained:
[1] = Antimicrobial activity / minimum inhibitory concentrations on seven strains of bacteria; assay type: cell-based; settings: read-out: MIC values
Description: (§1) Seven strains of bacteria were used in the assessment of the antimicrobial activity of the ILs claimed: 4 gram negative and three gram positive as shown below.
(§2) A wide concentration range was tested (0-20000 μg/ml). The concentrations screened for antibacterial activity are generally from 2 μg/ml to 1000 μg/ml (Table 6). […] The concentration range screened for the ILs containing ethers was up to 20000 μg/ml. At these high concentrations a lack of antibacterial activity is a significant result.

[2] = test system: Pseudomonas aeruginosa, Escherichia coli, Klebsiella sp., Salmonella sp., Staphylococcus aureus, Enterococcus sp., Bacillus subtilis; test: as above; assay type: cell-based; settings: for toxicity / antibacterial activity in words: seven strains of bacteria; for MIC values: seven strains, not split, range tested 0-20000 μg/ml
Description: as §1, §2

[3] = seven strains, not split, range tested 0-20000 μg/ml

SMILES | MIC [1, 3] [mg/mL] | toxicity / antibacterial activity in words [2] | MIC values [2] | other results
CCOCCOC(=O)Cn1cc[n+](C)c1.[Br-] [KG8, 3-methyl-1-(2-[2-ethoxy]ethoxycarbonylmethyl)imidazolium bromide] | > 20 | non-toxic | – | –
CC(C)OCCOC(=O)Cn1cc[n+](C)c1.[Br-] [KG9, 3-methyl-1-(2-[2-propoxy]ethoxycarbonylmethyl)imidazolium bromide] | > 20 | non-toxic | – | –
CCC(C)OCCOC(=O)Cn1cc[n+](C)c1.[Br-] (centres unmarked) [KG10, 3-methyl-1-(2-[2-butoxy]ethoxycarbonylmethyl)imidazolium bromide] | > 20 | non-toxic | – | –
COCCOCCOC(=O)Cn1cc[n+](C)c1.[Br-] [KG12, 3-methyl-1-(2-[2-methoxyethoxy]ethoxycarbonylmethyl)imidazolium bromide] | > 20 | non-toxic | – | –
CCOCCOCCOC(=O)Cn1cc[n+](C)c1.[Br-] [KG13, 3-methyl-1-(2-[2-ethoxyethoxy]ethoxycarbonylmethyl)imidazolium bromide] | – | non-toxic | – | MIC [1]: > 20 mg/mL
CCCOCCOCCOC(=O)Cn1cc[n+](C)c1.[Br-] [KG14, 3-methyl-1-(2-[2-propoxyethoxy]ethoxycarbonylmethyl)imidazolium bromide] | > 20 | non-toxic | – | –
CCCCOCCOCCOC(=O)Cn1cc[n+](C)c1.[Br-] [KG15, 3-methyl-1-(2-[2-butoxyethoxy]ethoxycarbonylmethyl)imidazolium bromide] | > 20 | non-toxic | – | toxicity / antibacterial activity in words ([2]; listed as KG 15): low toxicity
CCCCCOC(=O)Cn1cc[n+](C)c1.[Br-] [KG17, 3-Methyl-1-(pentoxycarbonylmethyl) imidazolium bromide] | > 20 | – | – | –
CCCCOC(=O)Cn1cc[n+](C)c1.[Br-] [KG19, 3-Methyl-1-(butoxycarbonylmethyl) imidazolium bromide] | > 20 | – | – | –
COCCOCCOC(=O)C[n+]1ccn(C)c1C.N#C[N-]C#N [KG85, 2,3-dimethyl-1-(2-[2-methoxyethoxy]ethoxycarbonylmethyl)imidazolium N(CN)2] | – | non-toxic | >20000 KG85 μg/ml | –
Cn1cc[n+](CC(=O)N2CCCC2)c1 [KG403, 3-methyl-1-(pyrrolidinylcarbonylmethyl)imidazolium octylsulfate, reference compound] | > 20 | – | – | –
Cc1n(C)cc[n+]1CC(=O)N1CCCC1 [KG404, 2,3-dimethyl-1-(pyrrolidinylcarbonylmethyl)imidazolium octylsulfate, reference compound] | > 20 | – | – | –
COC(C)N(C(=O)Cn1cc[n+](C)c1)C(C)OC.[Br-] (centres unmarked) [KG407, (3-methyl-1-[bis-1-methoxyethyl]carbamylmethyl)imidazolium bromide] | – | low toxicity; also recorded: non-toxic | >20000 KG407 μg/ml | –
C[n+]1ccn(CC(=O)N2CCCC2)c1.[Br-] [KG420, 3-methyl-1-(pyrrolidinylcarbonylmethyl)imidazolium bromide, reference compound] | – | – | >20000 KG420 μg/ml | –
Cc1n(CC(=O)N2CCCC2)cc[n+]1C.[Br-] [KG421, 2,3-dimethyl-1-(pyrrolidinylcarbonylmethyl)imidazolium bromide, reference compound] | – | – | >20000 KG421 μg/ml | –
COC(C)NC(=O)C[n+]1ccn(C)c1.[Br-] (centres unmarked) [KG422, (3-methyl-1-[1-methoxyethyl]carbamylmethyl)imidazolium bromide] | – | low toxicity; also recorded: non-toxic | >20000 KG422 μg/ml | –
CCC(NC(=O)Cn1cc[n+](C)c1)OC.[Br-] (centres unmarked) [KG423, (3-methyl-1-[1-methoxypropyl]carbamylmethyl)imidazolium bromide] | – | low toxicity | >20000 KG423 μg/ml | –
